From US11541057B2, “Thienopyrimidinone NMDA receptor modulators and uses thereof” (Cadent Therapeutics, Inc., priority 2015, dated 2023)

Biological target: T1, NMDA receptor GRIN1/GRIN2B (NR2B) expressed in HEK293 cells (Homo sapiens, UniProt Q13224)
T1 construct: host or cells: HEK293
Assay: Reversal of Ro 25-6981-mediated suppression of the Ca2+ response (fluo-8 fluorescence, FDSS) in HEK293 cells expressing GRIN1 and GRIN2B
Assay type: cell-based
Conditions: % reversal=100*(R−Rneg)/(Rpos−Rneg) of Ro 25-6981 suppression of co-agonist (glutamate/glycine) Ca2+ response, 10 min pre-incubation, compound concentration not given
Outline: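 HEK293 with stable GRIN1 and tetracycline-induced GRIN2B, loaded with fluo-8 and preincubated 10 min with compound plus Ro 25-6981 and 5,7-dichlorokynurenic acid. Ca2+ response recorded 2 min after glutamate/glycine/CaCl2 co-agonist addition. % reversal = 100*(R−Rneg)/(Rpos−Rneg) from end fluorescence ratios.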

T1 sequence (Q13224 27-1484, other chains not shown): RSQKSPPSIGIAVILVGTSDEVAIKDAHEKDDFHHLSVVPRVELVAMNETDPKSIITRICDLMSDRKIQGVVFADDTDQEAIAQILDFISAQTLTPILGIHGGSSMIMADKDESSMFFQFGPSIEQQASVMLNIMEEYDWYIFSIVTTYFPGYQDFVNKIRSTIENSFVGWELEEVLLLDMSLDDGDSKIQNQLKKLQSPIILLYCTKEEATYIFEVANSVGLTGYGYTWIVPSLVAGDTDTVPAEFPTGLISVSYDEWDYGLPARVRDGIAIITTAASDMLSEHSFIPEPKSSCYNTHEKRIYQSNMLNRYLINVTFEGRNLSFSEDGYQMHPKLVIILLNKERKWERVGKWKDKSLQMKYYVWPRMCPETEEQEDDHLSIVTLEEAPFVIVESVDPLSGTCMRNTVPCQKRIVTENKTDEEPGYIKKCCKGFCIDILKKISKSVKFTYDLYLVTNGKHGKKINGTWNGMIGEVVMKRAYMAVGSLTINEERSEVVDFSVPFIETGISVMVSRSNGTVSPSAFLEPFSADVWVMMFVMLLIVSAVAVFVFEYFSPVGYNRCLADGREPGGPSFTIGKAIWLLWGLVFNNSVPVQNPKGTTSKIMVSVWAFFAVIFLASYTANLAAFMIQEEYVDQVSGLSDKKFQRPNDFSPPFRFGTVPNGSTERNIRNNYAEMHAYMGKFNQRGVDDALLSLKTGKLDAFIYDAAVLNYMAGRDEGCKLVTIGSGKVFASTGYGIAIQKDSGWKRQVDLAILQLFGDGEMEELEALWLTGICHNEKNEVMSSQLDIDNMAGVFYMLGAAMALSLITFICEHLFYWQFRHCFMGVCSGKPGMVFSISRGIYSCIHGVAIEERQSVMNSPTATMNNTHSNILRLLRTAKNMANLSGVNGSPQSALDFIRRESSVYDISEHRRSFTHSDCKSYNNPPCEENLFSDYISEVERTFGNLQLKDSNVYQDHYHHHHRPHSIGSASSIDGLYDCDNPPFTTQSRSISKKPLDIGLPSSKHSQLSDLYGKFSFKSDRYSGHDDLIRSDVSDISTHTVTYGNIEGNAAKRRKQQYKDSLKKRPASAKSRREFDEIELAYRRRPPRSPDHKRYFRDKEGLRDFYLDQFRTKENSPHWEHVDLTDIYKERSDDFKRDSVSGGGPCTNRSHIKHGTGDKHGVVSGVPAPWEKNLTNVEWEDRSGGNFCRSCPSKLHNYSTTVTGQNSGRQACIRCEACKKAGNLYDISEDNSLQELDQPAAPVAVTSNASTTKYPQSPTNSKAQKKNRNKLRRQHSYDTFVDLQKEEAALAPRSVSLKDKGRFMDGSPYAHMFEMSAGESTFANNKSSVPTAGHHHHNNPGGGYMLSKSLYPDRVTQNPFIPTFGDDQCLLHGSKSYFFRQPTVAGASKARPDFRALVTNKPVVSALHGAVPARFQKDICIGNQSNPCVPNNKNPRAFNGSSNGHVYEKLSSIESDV

Response Recovered (%)	Structure (SMILES)
−1	O=C(Cn1cnc2scc(-c3ccc(Cl)cc3)c2c1=O)N1CCC(O)(c2ccccc2)CC1 [Example 15, 5-(4-chlorophenyl)-3-[2-(4-hydroxy-4-phenylpiperidin-1-yl)-2-oxoethyl]-3H,4H-thieno[2,3-d]pyrimidin-4-one]
17	Cc1sc2ncn(CC(=O)N3CCCC3)c(=O)c2c1-c1ccc(Cl)cc1 [Example 79, 5-(4-Chloro-phenyl)-6-methyl-3-(2-oxo-2-pyrrolidin-1-yl-ethyl)-3H-thieno[2,3-d]pyrimidin-4-one]
3	O=C(Cn1cnc2scc(-c3ccc(Cl)cc3)c2c1=O)N1CCC(O)C1 (stereo not drawn) [Example 6, 5-(4-chlorophenyl)-3-[2-(3-hydroxypyrrolidin-1-yl)-2-oxoethyl]-3H,4H-thieno[2,3-d]pyrimidin-4-one]
18	O=c1c2c(-c3ccc(Cl)c(C(F)(F)F)c3)csc2ncn1/N=C/N1CCCC1 [Example 94, (E)-5-(4-chloro-3-(trifluoromethyl)phenyl)-3-((pyrrolidin-1-ylmethylene)amino)thieno[2,3-d]pyrimidin-4(3H)-one]
83	O=C(Cn1cnc2scc(-c3ccc(F)c(C(F)(F)F)c3)c2c1=O)N1CCC(F)C1 (stereo not drawn) [Example 61]
43	O=C(Cn1cnc2scc(-c3ccc(Cl)c(F)c3)c2c1=O)N1CCC(F)C1 (stereo not drawn) [Example 59, 5-(4-chloro-3-fluorophenyl)-3-[2-(3-fluoropyrrolidin-1-yl)-2-oxoethyl]-3H,4H-thieno[2,3-d]pyrimidin-4-one]
14	CN(C)/C=N/n1cnc2scc(-c3ccc(Cl)c(C(F)(F)F)c3)c2c1=O [Example 100, (E)-N′-(5-(4-chloro-3-(trifluoromethyl)phenyl)-4-oxothieno[2,3-d]pyrimidin-3(4H)-yl)-N,N-dimethylformimidamide]
2	O=C(CCn1cnc2scc(-c3ccc(Cl)c(C(F)(F)F)c3)c2c1=O)N1CCC(F)C1 (stereo not drawn) [Example 102, 5-[4-chloro-3-(trifluoromethyl)phenyl]-3-[3-(3-fluoropyrrolidin-1-yl)-3-oxopropyl]-3H,4H-thieno[2,3-d]pyrimidin-4-one]
2	COc1ccc(-c2csc3ncn(CC(=O)N4CCCC4)c(=O)c23)cn1 [Example 36, 5-(6-methoxypyridin-3-yl)-3-[2-oxo-2-(pyrrolidin-1-yl)ethyl]-3H,4H-thieno[2,3-d]pyrimidin-4-one]
4	O=C(Cn1cnc2scc(-c3ccccc3Cl)c2c1=O)N1CCCC1 [Example 52, 5-(2-chlorophenyl)-3-[2-oxo-2-(pyrrolidin-1-yl)ethyl]-3H,4H-thieno[2,3-d]pyrimidin-4-one]
61	O=C(Cn1cnc2scc(-c3ccc(Cl)c(Cl)c3)c2c1=O)N1CCCC1 [Example 37, 5-(3,4-dichlorophenyl)-3-[2-oxo-2-(pyrrolidin-1-yl)ethyl]-3H,4H-thieno[2,3-d]pyrimidin-4-one]
−1	CC1CCCC(C)N1C(=O)Cn1cnc2scc(-c3ccc(Cl)cc3)c2c1=O (stereo not drawn) [Example 12, 5-(4-chlorophenyl)-3-[2-(2,6-dimethylpiperidin-1-yl)-2-oxoethyl]-3H,4H-thieno[2,3-d]pyrimidin-4-one]
−1	O=C(Cn1c(C(F)(F)F)nc2scc(-c3ccc(Cl)cc3)c2c1=O)N1CCCC1 [Example 105, 5-(4-chlorophenyl)-3-[2-oxo-2-(pyrrolidin-1-yl)ethyl]-2-(trifluoromethyl)-3H,4H-thieno[2,3-d]pyrimidin-4-one]
1	Cn1nccc1-c1csc2ncn(CC(=O)N3CCCC3)c(=O)c12 [Example 33, 5-(1-methyl-1H-pyrazol-5-yl)-3-[2-oxo-2-(pyrrolidin-1-yl)ethyl]-3H,4H-thieno[2,3-d]pyrimidin-4-one]
4	O=C(Cn1cnc2scc(-c3ccc(F)cc3)c2c1=O)N1CCCCC1 [Example 24, 5-(4-fluorophenyl)-3-[2-oxo-2-(piperidin-1-yl)ethyl]-3H,4H-thieno[2,3-d]pyrimidin-4-one]
